Laboratory results: paper PMC10794144, “A novel antibiotic class targeting the lipopolysaccharide transporter” (Nature, 2024)
Like-named read-outs stand apart in the source and are kept apart here.

System: A. baumannii
Experiment: microbe, parasite or virus in culture
Details: Acinetobacter baumannii, 100%
Method in brief: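 Broth microdilution per CLSI M07/M100, with inocula diluted from a 0.5 McFarland suspension in CAMHB, or LB for A. baylyi. MIC was read as the lowest concentration inhibiting growth by eye or beyond which OD600 stopped decreasing.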

Measured: MIC

C[C@@H](O)[C@H]1C(=O)N2C(C(=O)O)=C(S[C@@H]3CN[C@H](C(=O)N(C)C)C3)[C@H](C)[C@H]12 [meropenem, reference compound]
32 µg/mL: read-out: MIC 100%, ROB08704, Study LGC296813 | read-out: MIC 100%, ROB08704, Study LGC299544 | read-out: MIC 100%, ROB08704, Study LGC301026 | read-out: MIC 100%, ROB08704, Study ROC009 | read-out: MIC 100%, ROB08704, Study ROC012 | read-out: MIC 100%, ROB08705, Study LGC281440 | read-out: MIC 100%, ROB08705, Study LGC282160 | read-out: MIC 100%, ROB08705, Study LGC282623 | read-out: MIC 100%, ROB08705, Study LGC283932 | read-out: MIC 100%, ROB08705, Study LGC284200 | read-out: MIC 100%, ROB08705, Study LGC284879 | read-out: MIC 100%, ROB08705, Study LGC285582 | read-out: MIC 100%, ROB08705, Study LGC286210 | read-out: MIC 100%, ROB08705, Study LGC293598 | read-out: MIC 100%, ROB08705, Study LGC294355 | read-out: MIC 100%, ROB08705, Study LGC295147 | read-out: MIC 100%, ROB08705, Study LGC296813 | read-out: MIC 100%, ROB08705, Study LGC299544 | read-out: MIC 100%, ROB08705, Study LGC308175 | read-out: MIC 100%, ROB08705, Study ROC003 | read-out: MIC 100%, ROB08705, Study ROC007 | read-out: MIC 100%, ROB08705, Study ROC009 | read-out: MIC 100%, ROB08705, Study ROC012 | read-out: MIC 100%, ROB08705, Study ROC013 | read-out: MIC 100%, ROB08706, Study LGC281440 | read-out: MIC 100%, ROB08706, Study LGC284200 | read-out: MIC 100%, ROB08706, Study ROC010 | read-out: MIC 100%, ROB08707, Study LGC277937 | read-out: MIC 100%, ROB08707, Study LGC279800 | read-out: MIC 100%, ROB08707, Study LGC281440 | read-out: MIC 100%, ROB08707, Study LGC282160 | read-out: MIC 100%, ROB08707, Study LGC284200 | read-out: MIC 100%, ROB08707, Study LGC285582 | read-out: MIC 100%, ROB08707, Study LGC286210 | read-out: MIC 100%, ROB08707, Study LGC293598 | read-out: MIC 100%, ROB08707, Study LGC294355 | read-out: MIC 100%, ROB08707, Study LGC296813 | read-out: MIC 100%, ROB08707, Study LGC301026 | read-out: MIC 100%, ROB08707, Study LGC308175 | read-out: MIC 100%, ROB08707, Study ROC004 | read-out: MIC 100%, ROB08707, Study ROC005 | read-out: MIC 100%, ROB08707, Study ROC008 | read-out: MIC 100%, ROB08707, Study ROC009 | read-out: MIC 100%, ROB08707, Study ROC010 | read-out: MIC 100%, ROB08707, Study ROC012 | read-out: MIC 100%, ROB08707, Study ROC013 | read-out: MIC 100%, ROB08708, Study LGC279800 | read-out: MIC 100%, ROB08708, Study LGC282623 | read-out: MIC 100%, ROB08708, Study LGC283932 | read-out: MIC 100%, ROB08708, Study LGC284200 | read-out: MIC 100%, ROB08708, Study LGC284879 | read-out: MIC 100%, ROB08708, Study LGC285582 | read-out: MIC 100%, ROB08708, Study LGC295147 | read-out: MIC 100%, ROB08708, Study LGC296813 | read-out: MIC 100%, ROB08708, Study LGC299544 | read-out: MIC 100%, ROB08708, Study LGC301026 | read-out: MIC 100%, ROB08708, Study ROC004 | read-out: MIC 100%, ROB08708, Study ROC009 | read-out: MIC 100%, ROB08708, Study ROC013 | read-out: MIC 100%, ROB08709, Study LGC277937 | read-out: MIC 100%, ROB08709, Study LGC279800 | read-out: MIC 100%, ROB08709, Study LGC281440 | read-out: MIC 100%, ROB08709, Study LGC282623 | read-out: MIC 100%, ROB08709, Study LGC283932 | read-out: MIC 100%, ROB08709, Study LGC284200 | read-out: MIC 100%, ROB08709, Study LGC284879 | read-out: MIC 100%, ROB08709, Study LGC285582 | read-out: MIC 100%, ROB08709, Study LGC286210 | read-out: MIC 100%, ROB08709, Study LGC293598 | read-out: MIC 100%, ROB08709, Study LGC294355 | read-out: MIC 100%, ROB08709, Study LGC299544 | read-out: MIC 100%, ROB08709, Study LGC308175 | read-out: MIC 100%, ROB08709, Study ROC013 | read-out: MIC 100%, ROB08710, Study LGC281440 | read-out: MIC 100%, ROB08710, Study LGC282623 | read-out: MIC 100%, ROB08710, Study LGC283932 | read-out: MIC 100%, ROB08710, Study LGC284200 | read-out: MIC 100%, ROB08710, Study LGC284879 | read-out: MIC 100%, ROB08710, Study LGC285582 | read-out: MIC 100%, ROB08710, Study LGC286210 | read-out: MIC 100%, ROB08710, Study LGC293598 | read-out: MIC 100%, ROB08710, Study LGC294355 | read-out: MIC 100%, ROB08710, Study LGC296813 | read-out: MIC 100%, ROB08710, Study LGC301026 | read-out: MIC 100%, ROB08710, Study LGC308175 | read-out: MIC 100%, ROB08710, Study ROC004 | read-out: MIC 100%, ROB08710, Study ROC005 | read-out: MIC 100%, ROB08710, Study ROC008 | read-out: MIC 100%, ROB08710, Study ROC010 | read-out: MIC 100%, ROB08710, Study ROC012 | read-out: MIC 100%, ROB08710, Study ROC013
16 µg/mL: read-out: MIC 100%, ROB08705, Study LGC279800 | read-out: MIC 100%, ROB08708, Study LGC281440 | read-out: MIC 100%, ROB08708, Study LGC282160 | read-out: MIC 100%, ROB08708, Study LGC286210 | read-out: MIC 100%, ROB08708, Study LGC293598 | read-out: MIC 100%, ROB08708, Study LGC294355 | read-out: MIC 100%, ROB08708, Study ROC005 | read-out: MIC 100%, ROB08708, Study ROC007 | read-out: MIC 100%, ROB08708, Study ROC008 | read-out: MIC 100%, ROB08708, Study ROC010 | read-out: MIC 100%, ROB08708, Study ROC012 | read-out: MIC 100%, ROB08709, Study LGC282160 | read-out: MIC 100%, ROB08709, Study LGC295147 | read-out: MIC 100%, ROB08709, Study LGC296813 | read-out: MIC 100%, ROB08709, Study LGC301026 | read-out: MIC 100%, ROB08709, Study ROC005 | read-out: MIC 100%, ROB08709, Study ROC007 | read-out: MIC 100%, ROB08709, Study ROC008 | read-out: MIC 100%, ROB08709, Study ROC009 | read-out: MIC 100%, ROB08709, Study ROC010 | read-out: MIC 100%, ROB08709, Study ROC012
> 64 µg/mL: read-out: MIC 100%, ROB08705, Study ROC008 | read-out: MIC 100%, ROB08706, Study LGC279800 | read-out: MIC 100%, ROB08706, Study ROC006 | read-out: MIC 100%, ROB08708, Study LGC277937
64 µg/mL: read-out: MIC 100%, ROB08704, Study LGC294355 | read-out: MIC 100%, ROB08704, Study LGC295147 | read-out: MIC 100%, ROB08704, Study LGC308175 | read-out: MIC 100%, ROB08704, Study ROC003 | read-out: MIC 100%, ROB08704, Study ROC004 | read-out: MIC 100%, ROB08704, Study ROC005 | read-out: MIC 100%, ROB08704, Study ROC006 | read-out: MIC 100%, ROB08704, Study ROC007 | read-out: MIC 100%, ROB08704, Study ROC008 | read-out: MIC 100%, ROB08704, Study ROC010 | read-out: MIC 100%, ROB08704, Study ROC013 | read-out: MIC 100%, ROB08705, Study LGC277937 | read-out: MIC 100%, ROB08705, Study LGC301026 | read-out: MIC 100%, ROB08705, Study ROC004 | read-out: MIC 100%, ROB08705, Study ROC005 | read-out: MIC 100%, ROB08705, Study ROC006 | read-out: MIC 100%, ROB08705, Study ROC010 | read-out: MIC 100%, ROB08706, Study LGC277937 | read-out: MIC 100%, ROB08706, Study LGC282160 | read-out: MIC 100%, ROB08706, Study LGC282623 | read-out: MIC 100%, ROB08706, Study LGC283932 | read-out: MIC 100%, ROB08706, Study LGC284879 | read-out: MIC 100%, ROB08706, Study LGC285582 | read-out: MIC 100%, ROB08706, Study LGC286210 | read-out: MIC 100%, ROB08706, Study LGC293598 | read-out: MIC 100%, ROB08706, Study LGC294355 | read-out: MIC 100%, ROB08706, Study LGC295147 | read-out: MIC 100%, ROB08706, Study LGC296813 | read-out: MIC 100%, ROB08706, Study LGC299544 | read-out: MIC 100%, ROB08706, Study LGC301026 | read-out: MIC 100%, ROB08706, Study LGC308175 | read-out: MIC 100%, ROB08706, Study ROC004 | read-out: MIC 100%, ROB08706, Study ROC005 | read-out: MIC 100%, ROB08706, Study ROC007 | read-out: MIC 100%, ROB08706, Study ROC008 | read-out: MIC 100%, ROB08706, Study ROC009 | read-out: MIC 100%, ROB08706, Study ROC012 | read-out: MIC 100%, ROB08706, Study ROC013 | read-out: MIC 100%, ROB08707, Study LGC282623 | read-out: MIC 100%, ROB08707, Study LGC283932 | read-out: MIC 100%, ROB08707, Study LGC284879 | read-out: MIC 100%, ROB08707, Study LGC295147 | read-out: MIC 100%, ROB08707, Study LGC299544 | read-out: MIC 100%, ROB08707, Study ROC006 | read-out: MIC 100%, ROB08707, Study ROC007 | read-out: MIC 100%, ROB08708, Study LGC308175 | read-out: MIC 100%, ROB08708, Study ROC006 | read-out: MIC 100%, ROB08709, Study ROC004 | read-out: MIC 100%, ROB08709, Study ROC006 | read-out: MIC 100%, ROB08710, Study LGC277937 | read-out: MIC 100%, ROB08710, Study LGC279800 | read-out: MIC 100%, ROB08710, Study LGC282160 | read-out: MIC 100%, ROB08710, Study LGC295147 | read-out: MIC 100%, ROB08710, Study LGC299544 | read-out: MIC 100%, ROB08710, Study ROC006 | read-out: MIC 100%, ROB08710, Study ROC007 | read-out: MIC 100%, ROB08710, Study ROC009
